# Data from patent US20240287070A1, “FUSED HETEROCYCLIC DERIVATIVES” (Janssen Sciences Ireland Unlimited Company, priority 2021, published 2024).
# How the values were obtained:
# [1] = Human liver microsome stability; type: in vitro ADME; conditions: human, pooled human liver microsomes, pH 7.4, pooled human liver microsomes 0.5 mg/mL, 1 μM compound, NADPH 1 mM, 37° C., 0-60 min; read-out: HLM Metabolism t1/2
# Description: Human Liver Microsome Stability t½ (Min) of Compounds of Formula (I) […] All incubations are performed singularly for each compound. NADPH was added to initiate the reaction with the final concentration of 1 mM and the final incubation volume of 400 μL. At 6 time points (0, 5, 10, 20, 40 and 60 min) reactions were stopped by the removal of 50 μL of the incubation mixture into plates containing acetonitrile at a of 1:3 (v:v). The plates were centrifuged at 3000 rpm for 10 min at 4° C. to precipitate the protein. Following protein precipitation, the sample supernatants were combined in cassettes of up to 8 compounds. The internal standard was added (1:1 supernatant to internal standard solution) and samples were analyzed using standard LC-MS conditions. From a plot of ln peak area ratio (compound peak area/internal standard peak area) against time, the gradient of the line is determined. Subsequently, half-life is calculated using the equations below: Elimination rate constant (k)=(−gradient) […]
# [2] = system: HBV (HepG2.117 cell line, inducibly HBV producing); test: Anti-HBV activity, intracellular HBV DNA by real-time PCR in HepG2.117 cell line; type: cell-based, hepatitis B virus; conditions: HepG2.117 cells, 3 days of treatment
# Description: The anti HBV activity was measured using the HepG2.117 cell line, a stable, inducibly HBV producing cell line, which replicates HBV in the absence of doxycycline (Tet-off system). The HepG2 cell line is available from ATCCR under number HB-8065. Transfection of the HepG2 cell line can be as described in Sun and Nassal 2006 Journal of Hepatology 45 (2006) 636-645 “Stable HepG2- and Huh7-based human hepatoma cell lines for efficient regulated expression of infectious hepatitis B virus”.
# For the antiviral assay, HBV replication was induced, followed by a treatment with serially diluted compound in 96-well plates. After 3 days of treatment, the antiviral activity was determined by quantification of intracellular HBV DNA using real-time PCR and an HBV specific primer set and probe.
# [3] = Cytotoxicity, ATPlite Luminescence Assay; type: cell-based, human; conditions: human, HepG2 or HepG2.117 cells, 3-days incubation unless marked with *
# Description: Cytotoxicity of the compounds was tested using HepG2 or HepG2.117 cells, incubated for 3 or 4 days in the presence of compounds. The viability of the cells was assessed using the PERKIN ELMER ATPlite Luminescence Assay System.”
# [4] = Hepatitis B virus, HepG2.117, 72 h
smiles,measurement,setting,value
"CC(c1cnn(C(C)C)c(=O)c1)N1C[C@@H](C)n2nc3c(c2C1=O)CN(C(=O)c1ccc(Cl)c(C(F)(F)F)c1)[C@H](C)C3 (single isomer, unassigned) [Compound 53A, (3R,7R)-2-(4-chloro-3-(trifluoromethyl)benzoyl)-9-((R*)-1-(1-isopropyl-6-oxo-1,6-dihydropyridazin-4-yl)ethyl)-3,7-dimethyl-1,2,3,4,8,9-hexahydropyrido[4′,3′:3,4]pyrazolo[1,5-a]pyrazin-10(7H)-one]",half-life at 1 μM,[1],1.85 h
same,EC50,[2],0.24 µM
same,CC50 at 3 days,[3],> 50 µM
"CNC(=O)C1(Oc2ccc(C(C)N3C[C@@H](C)n4nc5c(c4C3=O)CN(C(=O)c3ccc(Cl)c(C#N)c3)[C@H](C)C5)cc2)CC1 (single isomer, unassigned) [Compound 13A, 1-(4-((R*)-1-((3R,7R)-2-(4-chloro-3-cyanobenzoyl)-3,7-dimethyl-10-oxo-1,2,3,4,7,8-hexahydropyrido[4′,3′:3,4]pyrazolo[1,5-a]pyrazin-9(10H)-yl)ethyl)phenoxy)-N-methylcyclopropanecarboxamide]",half-life at 1 μM,[1],1.88 h
same,EC50,[2],0.037 µM
same,CC50 at 3 days,[3],> 50 µM
"CC(c1ccc(C(C)(C)O)cc1)N1C[C@@H](C)n2nc3c(c2C1=O)CN(C(=O)c1ccc(Cl)c(Cl)c1)[C@H](C)C3 (single isomer, unassigned) [Compound 8A, (3R,7R)-2-(3,4-dichlorobenzoyl)-9-((R*)-1-(4-(2-hydroxypropan-2-yl)phenyl)ethyl)-3,7-dimethyl-1,2,3,4,8,9-hexahydropyrido[4′,3′:3,4]pyrazolo[1,5-a]pyrazin-10(7H)-one]",half-life at 1 μM,[1],> 3 h
same,EC50,[2],0.024 µM
same,CC50 at 3 days,[3],20.1 µM
"C[C@@H]1Cc2nn3c(c2CN1C(=O)c1ccc(Cl)c(C(F)(F)F)c1)C(=O)N([C@@H](C)c1ccc([S@@](C)(=N)=O)cc1)C[C@H]3C (relative stereo) [Compound 19D, (3R,7R)-2-(4-chloro-3-(trifluoromethyl)benzoyl)-3,7-dimethyl-9-((S*)-1-(4-((S*)—S-methylsulfonimidoyl)phenyl)ethyl)-1,2,3,4,8,9-hexahydropyrido[4′,3′:3,4]pyrazolo[1,5-a]pyrazin-10(7H)-one]",half-life at 1 μM,[1],> 3 h
same,EC50,[2]; [4],0.011 µM
same,CC50 at 3 days,[3],> 50 µM
"CC(c1cnc(C(C)(C)O)nc1)N1C[C@@H](C)n2nc3c(c2C1=O)CN(C(=O)c1ccc(Cl)c(Cl)c1)[C@H](C)C3 (single isomer, unassigned) [Compound 36A, (3R,7R)-2-(3,4-Dichlorobenzoyl)-9-((R*)-1-(2-(2-hydroxypropan-2-yl)pyrimidin-5-yl)ethyl)-3,7-dimethyl-1,2,3,4,8,9-hexahydropyrido[4′,3′:3,4]pyrazolo[1,5-a]pyrazin-10(7H)-one]",half-life at 1 μM,[1],> 3 h
same,EC50,[2],0.64 µM
same,CC50 at 3 days,[3],> 50 µM
"CC(c1ccc(-n2cncn2)nc1)N1C[C@@H](C)n2nc3c(c2C1=O)CN(C(=O)c1ccc(Cl)c(Cl)c1)[C@H](C)C3 (single isomer, unassigned) [Compound 5A, (3R,7R)-9-((R*)-1-(6-(1H-1,2,4-Triazol-1-yl)pyridin-3-yl)ethyl)-2-(3,4-dichlorobenzoyl)-3,7-dimethyl-1,2,3,4,8,9-hexahydropyrido[4′,3′:3,4]pyrazolo[1,5-a]pyrazin-10(7H)-one]",half-life at 1 μM,[1],> 3 h
same,EC50,[2],0.087 µM
same,CC50 at 3 days,[3],> 50 µM
"CC(c1ccc(C(C)(C)O)nc1)N1C[C@@H](C)n2nc3c(c2C1=O)CN(C(=O)c1cc(Cl)c(Cl)cn1)[C@H](C)C3 (single isomer, unassigned) [Compound 57A, (3R,7R)-2-(4,5-dichloropicolinoyl)-9-((R*)-1-(6-(2-hydroxypropan-2-yl)pyridin-3-yl)ethyl)-3,7-dimethyl-1,2,3,4,8,9-hexahydropyrido[4′,3′:3,4]pyrazolo[1,5-a]pyrazin-10(7H)-one]",half-life at 1 μM,[1],> 3 h
same,EC50,[2],> 2.5 µM
same,CC50 at 3 days,[3],> 50 µM
"Cc1nnc(C(C)N2C[C@@H](C)n3nc4c(c3C2=O)CN(C(=O)c2ccc(Cl)c(Cl)c2)[C@H](C)C4)o1 (single isomer, unassigned) [Compound 43A, (3R,7R)-2-(3,4-dichlorobenzoyl)-3,7-dimethyl-9-((R*)-1-(5-methyl-1,3,4-oxadiazol-2-yl)ethyl)-1,2,3,4,8,9-hexahydropyrido[4′,3′:3,4]pyrazolo[1,5-a]pyrazin-10(7H)-one]",half-life at 1 μM,[1],> 3 h
same,EC50,[2],0.31 µM
same,CC50 at 3 days,[3],> 50 µM
"Cc1nnn(-c2ccc(C(C)N3C[C@@H](C)n4nc5c(c4C3=O)CN(C(=O)c3ccc(Cl)c(Cl)c3)[C@H](C)C5)cc2)n1 (single isomer, unassigned) [Compound 22A, (3R,7R)-2-(3,4-dichlorobenzoyl)-3,7-dimethyl-9-((R*)-1-(4-(5-methyl-2H-tetrazol-2-yl)phenyl)ethyl)-1,2,3,4,8,9-hexahydropyrido[4′,3′:3,4]pyrazolo[1,5-a]pyrazin-10(7H)-one]",half-life at 1 μM,[1],1.35 h
same,EC50,[2]; [4],0.034 µM
same,CC50 at 3 days,[3],> 50 µM
"C[C@@H]1Cc2nn3c(c2CN1C(=O)c1ccc(Cl)c(C#N)c1)C(=O)N([C@@H](C)c1ccc(OC(F)F)cc1)C[C@@H]3C (relative stereo) [Compound 1B, 2-Chloro-5-((3R,7S*)-9-((S*)-1-(4-(difluoromethoxy)phenyl)ethyl)-3,7-dimethyl-10-oxo-1,2,3,4,7,8,9,10-octahydropyrido[4′,3′:3,4]pyrazolo[1,5-a]pyrazine-2-carbonyl)benzonitrile]",half-life at 1 μM,[1],0.612 h
same,EC50,[2]; [4],1.49 µM
same,CC50 at 3 days,[3],> 50 µM
"C[C@@H]1Cc2nn3c(c2CN1C(=O)c1ccc(Cl)c(C(F)(F)F)c1)C(=O)N([C@@H](C)c1ccc([S@](C)(=N)=O)cc1)C[C@H]3C (relative stereo) [Compound 19C, (3R,7R)-2-(4-chloro-3-(trifluoromethyl)benzoyl)-3,7-dimethyl-9-((S*)-1-(4-((R*)—S-methylsulfonimidoyl)phenyl)ethyl)-1,2,3,4,8,9-hexahydropyrido[4′,3′:3,4]pyrazolo[1,5-a]pyrazin-10(7H)-one]",half-life at 1 μM,[1],> 3 h
same,EC50,[2]; [4],0.011 µM
same,CC50 at 3 days,[3],> 50 µM
"CC(c1ccc(C(C)(C)O)nc1)N1C[C@@H](C)n2nc3c(c2C1=O)CN(C(=O)c1ccc(Cl)c(Cl)c1)[C@H](C)C3 (single isomer, unassigned) [Compound 2A, (3R,7R)-2-(3,4-dichlorobenzoyl)-9-((R*)-1-(6-(2-hydroxypropan-2-yl)pyridin-3-yl)ethyl)-3,7-dimethyl-1,2,3,4,8,9-hexahydropyrido[4′,3′:3,4]pyrazolo[1,5-a]pyrazin-10(7H)-one]",half-life at 1 μM,[1],> 3 h
same,EC50,[2],0.099 µM
same,CC50 at 3 days,[3],> 50 µM
"CC(c1cnc(N2CCOC[C@@H]2C)nc1)N1C[C@@H](C)n2nc3c(c2C1=O)CN(C(=O)c1ccc(Cl)c(C(F)(F)F)c1)[C@H](C)C3 (single isomer, unassigned) [Compound 38A, (3R,7R)-2-(4-chloro-3-(trifluoromethyl)benzoyl)-3,7-dimethyl-9-((R*)-1-(2-((S)-3-methylmorpholino)pyrimidin-5-yl)ethyl)-1,2,3,4,8,9-hexahydropyrido[4′,3′:3,4]pyrazolo[1,5-a]pyrazin-10(7H)-one]",half-life at 1 μM,[1],1.01 h
same,EC50,[2],0.06 µM
same,CC50 at 3 days,[3],47 µM
"CC(c1cnc(C(F)(F)F)nc1)N1C[C@@H](C)n2nc3c(c2C1=O)CN(C(=O)c1ccc(Cl)c(Cl)c1)[C@H](C)C3 (single isomer, unassigned) [Compound 34A, (3R,7R)-2-(3,4-dichlorobenzoyl)-3,7-dimethyl-9-((R*)-1-(2-(trifluoromethyl)pyrimidin-5-yl)ethyl)-1,2,3,4,8,9-hexahydropyrido[4′,3′:3,4]pyrazolo[1,5-a]pyrazin-10(7H)-one]",half-life at 1 μM,[1],> 3 h
same,EC50,[2],0.63 µM
same,CC50 at 3 days,[3],> 50 µM
"C[C@@H]1Cc2nn3c(c2CN1C(=O)c1ccc(Cl)c(Cl)c1)C(=O)N([C@H](C)c1ccc(C#N)cc1)CC3 [Ref 4, reference compound]",CC50 at 3 days,[3],> 50 µM
"CC(c1ccccn1)N1CCn2nc3c(c2C1=O)CN(C(=O)c1ccc(Cl)c(Cl)c1)[C@H](C)C3 (mixture of isomers) [Ref 3, reference compound]",CC50 at 3 days,[3],> 50 µM
"C[C@@H]1Cc2nn3c(c2CN1C(=O)c1ccc(Cl)c(Cl)c1)C(=O)N([C@@H](C)c1ccc(C#N)cc1)CC3 [Ref 5, reference compound]",CC50 at 3 days,[3],> 50 µM
